According to patent US20080119510A1, “Substituted Imidazo [4,5-B] Pyridines As Inhibitors Of Gastric Acid Secretion” (Altana Pharma AG, priority 2004, published 2008):

Tested on: not given
Experiment: not given
Settings: not given

Compound | melting point
CCc1cccc(C)c1CNc1ccnc2c1nc(C)n2C [Example 1, 7-(2-Ethyl-6-methylbenzyl)amino-2,3-dimethyl-3H-imidazo[4,5-b]pyridine] | 105 to 109 °C
CCc1cccc(C)c1CNc1cc(C(=O)O)nc2c1nc(C)n2C [Example 10, 7-(2-ethyl-6-methylbenzyl)amino-2,3-dimethyl-3H-imidazo[4,5-b]pyridine-5-carboxylic Acid] | 235 to 238 °C

Tested on: pentagastrin-stimulated acid secretion of the perfused rat stomach
Experiment: Secretion-inhibiting action on the perfused rat stomach (pentagastrin-stimulated acid secretion)
Type: in vivo
Settings: anesthetized CD rat, dose 3.0 μmol/kg i.d.
Text: In Table A which follows, the influence of the compounds of the formula 1 according to the invention on the pentagastrin-stimulated acid secretion of the perfused rat stomach after intraduodenal administration in vivo is shown.
The abdomen of anesthetized rats (CD rat, female, 200-250 g; 1.5 g/kg i.m. urethane) was opened after tracheotomy by a median upper abdominal incision and a PVC catheter was fixed transorally in the esophagus and another via the pylorus such that the ends of the tubes just projected into the gastric lumen. The catheter leading from the pylorus led outward into the right abdominal wall through a side opening.
After thorough rinsing (about 50-100 ml), warm (37° C.) physiological NaCl solution was continuously passed through the stomach (0.5 ml/min, pH 6.8-6.9; Braun-Unita I). The pH (pH meter 632, glass electrode EA 147; φ=5 mm, Metrohm) and, by titration with a freshly prepared 0.01 N NaOH solution to pH 7 (Dosimat 665 Metrohm), the secreted HCl were determined in the effluent in each case collected at an interval of 15 minutes.
The gastric secretion was stimulated by continuous infusion of […] (=1.65 ml/h) of i.v. pentagastrin (left femoral vein) about 30 min after the end of the operation (i.e. after determination of 2 preliminary fractions). The substances to be tested were administered intraduodenally in a 2.5 ml/kg liquid volume 60 min after the start of the continuous pentagastrin infusion. The body temperature of the animals was kept at a constant 37.8-38° C. by infrared irradiation and heat pads (automatic, stepless control by means of a rectal temperature sensor).

Compound | Inhibition of acid secretion (%)
CCc1cccc(C)c1CNc1ccnc2c1nc(C)n2C [Example 1, 7-(2-Ethyl-6-methylbenzyl)amino-2,3-dimethyl-3H-imidazo[4,5-b]pyridine] | >30%
CCc1cccc(C)c1CNc1cc(C(=O)N(C)C)nc2c1nc(C)n2C [Example 2, 5-(Dimethylaminocarbonyl)-7-(2-ethyl-6-methylbenzyl)amino-2,3-dimethyl-3H-imidazo[4,5-b]pyridine] | >30%
CCc1cccc(C)c1CNc1cc(C(N)=O)nc2c1nc(C)n2C [Example 3, 5-(Aminocarbonyl)-7-(2-ethyl-6-methylbenzyl)amino-2,3-dimethyl-3H-imidazo[4,5-b]pyridine] | >30%
CCc1cccc(C)c1CNc1cc(C(=O)NCCO)nc2c1nc(C)n2C [Example 5, 7-(2-Ethyl-6-methylbenzyl)amino-5-(2-hydroxyethylaminocarbonyl)-2,3-dimethyl-3H-imidazo[4,5-b]pyridine] | >30%
CCc1cccc(C)c1CNc1cc(OC)nc2c1nc(C)n2C [Example 6, 7-(2-Ethyl-6-methylbenzyl)amino-5-methoxy-2,3-dimethyl-3H-imidazo[4,5-b]pyridine] | >30%
